Experimental data reported in US20260226006A1, “INDOLE COMPOUND, PREPARATION METHOD THEREFOR AND USE THEREOF” (SUZHOU MERNA THERAPEUTICS CO. LTD, priority 2023, published 2026).

Legend:
paw plantar skin of rats = assay: Rat models with hand-foot skin reaction, topical ointment (Example 22); assay type: in vivo, SD rats; settings: for Incidence rate (successful modeling rate for hand-foot skin reaction): modeling drug alone by gavage once daily, no ointment, SD rats, 30 days
Description: After adaptive feeding for one week, SD rats (with a body weight of approximately 200 g) were randomly divided into groups according to the body weight, with 12 rats in each group. Modeling drugs (including sorafenib, erlotinib, afatinib, and osimertinib) were respectively dissolved in a solution containing 5% of DMSO, 45% of PEG400, and 50% of H2O, and the modeling drugs were diluted to required concentrations and then administered once daily by gavage at doses shown in Table 3. After administration by gavage for 1 hour, 0.05 g of ointments containing different mass proportions of test compounds were evenly applied to left paws of the rats, a blank matrix ointment was applied to right paws of the rats to serve as a self-control, and no ointment was applied to the rats in a blank control group. After drug application, four limbs were continuously immobilized for 2 hours, then wiped with clean water to remove the residual drugs, removed from immobilization, and restored to free movement. The modeling drugs, the blank matrix ointment, and the ointments containing the test compounds were all administered once daily. After continuous administration for 30 days, the rats were euthanized, and paw plantar skin tissues were collected, fixed in 10% neutral formalin, […]. The ointments for the test compounds were prepared by mixing the compounds, white beeswax, white petrolatum, and light liquid paraffin in specific ratios (weight ratios of 3 ointments were respectively 1:18:58:23, 3:18:57:22, and 10:20:40:30). The blank matrix ointment was prepared by mixing white beeswax, white petrolatum, and light liquid paraffin in a specific ratio (weight ratio of 18:60:22).
Tissue staining: After dewaxing and rehydration, the paw plantar skin tissue sections of the above rats were stained in a hematoxylin solution for several minutes, cleaned, and placed in 1% acid alcohol for soaking until the sections faded to light blue-red. After cleaning with running water for 5 minutes, the sections were stained with eosin for 2-3 minutes, cleaned to remove excess dyes, dehydrated, then permeabilized by adding xylene for several minutes, and sealed and fixed with a neutral resin. The stratum corneum was observed under an optical microscope, and the thickness of the epidermal stratum corneum was measured using Dmetrix software.
Immunohistochemical staining: After dewaxing and hydration, the paw plantar skin tissue sections of the above rats were incubated with 3% H2O2 at room temperature for 30 minutes and blocked with 10% goat serum for 30 minutes after antigen retrieval. A KRT1 antibody (Abcam, ab93652) and a Loricrin antibody (Abcam, ab183646) were added dropwise, the sections were incubated overnight at 4° C., and an HRP secondary antibody (ZSGB-BIO, PV-6001) and a DAB kit (ZSG-BIO, ZLI9017) were added for color development. The sections were re-stained with hematoxylin, cleaned, and sealed and fixed with a neutral resin, and the expression amounts of KRT1 and Loricrin were observed under an optical microscope.
An incidence rate calculation method involves a proportion of animals in each group meeting the above criteria for determining successful modeling, that is, incidence rate=(number of successfully modeled rats/total number of rats in the group)*100%. […]

HaCat cells = assay: m6A methylation level of human HaCat keratinocytes, EpiQuik m6A RNA methylation quantification kit (Example 20); assay type: cell-based; settings: HaCat cells, 24 hours
Description: HaCat cells were cultured in a DMEM culture medium containing 10% fetal bovine serum, 100 U/mL penicillin, and 100 μg/mL streptomycin. Culture dishes were placed in an incubator containing 5% CO2 for culture at 37° C. for 24 hours. An equal volume of DMSO was added in control group 1, 50 nM sorafenib, capecitabine, docetaxel, and osimertinib were respectively added in control groups A, B, C, and D, and 400 nM test compounds or nicotinamide were respectively added in sample groups A1-17, B1-17, C1-17, and D1-17 after the addition of 50 nM corresponding compounds. The cells were continuously cultured for 24 hours, washed with PBS, and then collected by high-speed centrifugation. Total RNA was extracted using a Trizol reagent (Sigma Aldrich), and RNA m6A methylation of a sample was quantitatively detected using an EpiQuik m6A RNA methylation quantification kit. The concentrations of positive control samples for a standard curve were 0.01 ng/μl, 0.02 ng/μl, 0.05 ng/μl, 0.1 ng/μl, 0.2 ng/μl, and 0.5 ng/μl. The absorbance at 450 nm was read using a microplate reader (Tecan GENios). A quantitative calculation formula for m6A is as follows:
m6A (ng)=(absorbance of sample well−absorbance of background well)/slope of standard curve m6A (%)=m6A (ng)/RNA amount of sample (ng)*100%.

[1] = successfully modeled rats, modeling drug
[2] = 50 nM capecitabine + 400 nM test compound
[3] = 50 nM docetaxel + 400 nM test compound
[4] = 50 nM osimertinib + 400 nM test compound
[5] = 50 nM sorafenib + 400 nM test compound

SMILES	Incidence rate (successful modeling rate for hand-foot skin reaction) (paw plantar skin of rats)	Incidence rate (successful modeling rate for hand-foot skin reaction) (paw plantar skin of rats; listed as afatinib)	KRT1 and Loricrin in tissues (immunohistochemical staining) (paw plantar skin of rats; [1])	stratum corneum thickness of the paw plantar skin (paw plantar skin of rats; [1])	m6A fold change relative to control group 1 (HaCat cells; [2])	m6A fold change relative to control group 1 (HaCat cells; [3])	m6A fold change relative to control group 1 (HaCat cells; [4])	m6A fold change relative to control group 1 (HaCat cells; [5])	KRT1 and Loricrin in tissues (immunohistochemical staining) (paw plantar skin of rats; rat, in vivo)	stratum corneum thickness of the paw plantar skin (paw plantar skin of rats; rat, in vivo)
CN(C)C/C=C/C(=O)Nc1cc2c(Nc3ccc(F)c(Cl)c3)ncnc2cc1O[C@H]1CCOC1 [Afatinib, afatinib, reference compound]	8/12 (66.7%)	66.7%	significantly increased	significantly higher than that of normal rats	–	–	–	–	–	–
NC(=O)C1CCCc2c1[nH]c1ccc(F)cc21 (stereo not drawn) [Compound 1, 6-fluoro-2,3,4,9-tetrahydro-1H-carbazole-1-carboxamide]	–	–	–	–	3.0	3.2	3.4	2.9	–	–
NC(=O)[C@@H]1CCCc2c1[nH]c1ccc(Cl)cc21 [Compound 2a, (R)-6-chloro-2,3,4,9-tetrahydro-1H-carbazole-1-carboxamide]	–	–	–	–	3.5	5.6	3.2	3.4	–	–
NC(=O)C1CCCc2c1[nH]c1cc(F)c(Cl)c(F)c21 (stereo not drawn) [Compound 4, 6-chloro-5,7-difluoro-2,3,4,9-tetrahydro-1H-carbazole-1-carboxamide]	–	–	–	–	3.2	5.1	4.2	3.6	–	–
NC(=O)C1c2[nH]c3ccc(Cl)cc3c2C2CCC1C2 (stereo not drawn) [Compound 5, 2-chloro-5,6,7,8,9,10-hexahydro-7,10-methanocyclohepta[b]indole-6-carboxamide]	–	–	–	–	3.0	2.9	3.1	2.4	–	–
NC(=O)C1c2[nH]c3ccc(Cl)cc3c2C2CCC1C2 [Compound 5b, (R)-2-chloro-5,6,7,8,9,10-hexahydro-7,10-methanocyclohepta[b]indole-6-carboxamide]	–	–	–	–	4.8	4.8	5.0	3.8	–	–
CC1CCC(C(N)=O)c2[nH]c3ccc(Cl)cc3c21 (stereo not drawn) [Compound 6, 6-chloro-4-methyl-2,3,4,9-tetrahydro-1H-carbazole-1-carboxamide]	–	–	–	–	3.2	5.1	3.5	3.4	–	–
NC(=O)C1CCC(F)c2c1[nH]c1ccc(Cl)cc21 (stereo not drawn) [Compound 7, 6-chloro-4-fluoro-2,3,4,9-tetrahydro-1H-carbazole-1-carboxamide]	–	–	–	–	3.9	3.4	2.9	3.3	–	–
CN1CCC(C(N)=O)c2[nH]c3ccc(Cl)cc3c21 (stereo not drawn) [Compound 8, 8-chloro-1-methyl-2,3,4,5-tetrahydropyrido[3,2-b]indole-4-carboxamide]	–	–	–	–	1.7	3.0	2.1	2.5	–	–
CN1CC[C@@H](C(N)=O)c2[nH]c3ccc(Cl)cc3c21 [Compound 8a, (R)-8-chloro-1-methyl-2,3,4,5-tetrahydropyrido[3,2-b]indole-4-carboxamide]	–	–	–	–	2.4	4.8	3.2	4.0	–	–
C#Cc1cccc(Nc2ncnc3cc(OCCOC)c(OCCOC)cc23)c1 [Erlotinib, erlotinib, reference compound]	–	–	–	–	–	–	–	–	significantly increased	significantly higher than that of normal rats
